Results reported in ChEMBL document CHEMBL5247613, “Design, synthesis and biological evaluation of a new class of Hsp90 inhibitors vibsanin C derivatives” (Eur J Med Chem, 2022).
The source made the active and inactive calls. The calls are words filed in the database; no cut-off is given here.

What was measured:
Reticulocyte = assay: Inhibition of HSP90 in rabbit reticulocyte lysates at 10 uM incubated for 3 hrs by denatured luciferase refolding assay; format: subcellular; conditions: Oryctolagus cuniculus
[1] = Inhibition of HSP90 in rabbit reticulocyte lysates incubated for 3 hrs by denatured luciferase refolding assay; format: subcellular, Oryctolagus cuniculus
HL-60 [2] = assay: Antiproliferative activity against human HL-60 cells assessed as reduction in cell viability incubated for 48 hrs by MTT assay; format: functional, cell-based; conditions: HL-60, 48 h
A549 = assay: Antiproliferative activity against human A549 cells assessed as reduction in cell viability incubated for 48 hrs by MTT assay; format: functional, cell-based; conditions: A549, 48 h
SMMC-7721 = assay: Antiproliferative activity against human SMMC-7721 cells assessed as reduction in cell viability incubated for 48 hrs by MTT assay; format: functional, cell-based; conditions: SMMC-7721, 48 h
MCF7 = assay: Antiproliferative activity against human MCF7 cells assessed as reduction in cell viability incubated for 48 hrs by MTT assay; format: functional, cell-based; conditions: MCF7, 48 h
SW480 = assay: Antiproliferative activity against human SW480 cells assessed as reduction in cell viability incubated for 48 hrs by MTT assay; format: functional, cell-based; conditions: SW480, 48 h
HL-60 [3] = assay: Induction of apoptosis in human HL-60 cells assessed as viable cells at 1 uM by AnnexinV-FITC/PI staining based flow cytometry (reference value: 89.7%); format: functional; conditions: read-out: Activity
HL-60 [4] = assay: Induction of apoptosis in human HL-60 cells assessed as early apoptotic cells at 1 uM by AnnexinV-FITC/PI staining based flow cytometry (reference value: 1.33%); format: functional
HL-60 [5] = assay: Induction of apoptosis in human HL-60 cells assessed as late apoptotic cells at 1 uM by AnnexinV-FITC/PI staining based flow cytometry (reference value: 8.57%); format: functional
HL-60 [6] = assay: Induction of apoptosis in human HL-60 cells assessed as necrotic cells at 1 uM by AnnexinV-FITC/PI staining based flow cytometry (reference value: 0.4%); format: functional
HL-60 [7] = assay: Induction of apoptosis in human HL-60 cells assessed as viable cells at 5 uM by AnnexinV-FITC/PI staining based flow cytometry (reference value: 89.7%); format: functional; conditions: read-out: Activity
HL-60 [8] = assay: Induction of apoptosis in human HL-60 cells assessed as early apoptotic cells at 5 uM by AnnexinV-FITC/PI staining based flow cytometry (reference value: 1.33%); format: functional
HL-60 [9] = assay: Induction of apoptosis in human HL-60 cells assessed as late apoptotic cells at 5 uM by AnnexinV-FITC/PI staining based flow cytometry (reference value: 8.57%); format: functional
HL-60 [10] = assay: Induction of apoptosis in human HL-60 cells assessed as necrotic cells at 5 uM by AnnexinV-FITC/PI staining based flow cytometry (reference value: 0.4%); format: functional
HL-60 [11] = assay: Induction of apoptosis in human HL-60 cells assessed as viable cells at 10 uM by AnnexinV-FITC/PI staining based flow cytometry (reference value: 89.7%); format: functional; conditions: read-out: Activity
HL-60 [12] = assay: Induction of apoptosis in human HL-60 cells assessed as early apoptotic cells at 10 uM by AnnexinV-FITC/PI staining based flow cytometry (reference value: 1.33%); format: functional
HL-60 [13] = assay: Induction of apoptosis in human HL-60 cells assessed as late apoptotic cells at 10 uM by AnnexinV-FITC/PI staining based flow cytometry (reference value: 8.57%); format: functional
HL-60 [14] = assay: Induction of apoptosis in human HL-60 cells assessed as necrotic cells at 10 uM by AnnexinV-FITC/PI staining based flow cytometry (reference value: 0.4%); format: functional
HL-60 [15] = assay: Induction of apoptosis in human HL-60 cells assessed as viable cells at 20 uM by AnnexinV-FITC/PI staining based flow cytometry (reference value: 89.7%); format: functional; conditions: read-out: Activity
HL-60 [16] = assay: Induction of apoptosis in human HL-60 cells assessed as early apoptotic cells at 20 uM by AnnexinV-FITC/PI staining based flow cytometry (reference value: 1.33%); format: functional
HL-60 [17] = assay: Induction of apoptosis in human HL-60 cells assessed as late apoptotic cells at 20 uM by AnnexinV-FITC/PI staining based flow cytometry (reference value: 8.57%); format: functional
HL-60 [18] = assay: Induction of apoptosis in human HL-60 cells assessed as necrotic cells at 20 uM by AnnexinV-FITC/PI staining based flow cytometry (reference value: 0.4%); format: functional
HL-60 [19] = assay: Induction of apoptosis in human HL-60 cells assessed as decrease in Bcl2 protein expression at 1 to 10 uM incubated for 24 hrs by western blot analysis; format: functional, cell-based; conditions: dose 1-10 µM
HL-60 [20] = assay: Induction of apoptosis in human HL-60 cells assessed as increase in Bax protein expression at 1 to 10 uM incubated for 24 hrs by western blot analysis; format: functional, cell-based; conditions: dose 1-10 µM
HL-60 [21] = assay: Induction of apoptosis in human HL-60 cells assessed as increase in caspase-3 cleavage incubated for 24 hrs by western blot analysis; format: functional, cell-based; conditions: dose 1-10 µM
HL-60 [22] = assay: Induction of apoptosis in human HL-60 cells assessed as increase in PARP cleavage incubated for 24 hrs by western blot analysis; format: functional, cell-based; conditions: dose 1-10 µM
[23] = target: T1, Heat shock protein HSP90 (Homo sapiens) (UniProt P07900+P08238); assay: Inhibition of HSP90 in human HL-60 cells assessed as increase in HSP27 protein expression incubated for 24 hrs by western blot analysis; format: cell-based; conditions: dose 1-10 µM
[24] = target: T1, Heat shock protein HSP90 (Homo sapiens); assay: Inhibition of HSP90 in human HL-60 cells assessed as decrease in CDK4 protein expression incubated for 24 hrs by western blot analysis; format: cell-based; conditions: dose 1-10 µM
[25] = Solubility of the compound in aqueous NMR buffer; format: physicochemical
H22 [26] = assay: Antitumor activity against mouse H22 cells xenografted in Kunming mouse assessed as reduction in tumor volume at 100 mg/kg, ip administered for 14 days; format: functional; conditions: H22, 336 h, time 14 day
H22 [27] = assay: Antitumor activity against mouse H22 cells xenografted in Kunming mouse assessed as reduction in tumor weight at 100 mg/kg, ip administered for 14 days; format: functional; conditions: H22, 336 h, time 14 day
[28] = Toxicity in Kunming mouse xenografted with mouse H22 cells assessed as body weight loss at 100 mg/kg, ip administered for 14 days; format: organism-based; conditions: in vivo, 336 h, time 14 day
[29] = Toxicity in Kunming mouse assessed as normal animal behaviour at 500 mg/kg, ip administered as single dose; format: organism-based; conditions: in vivo
[30] = Toxicity in Kunming mouse assessed as effect on feeding habits at 500 mg/kg, ip administered as single dose; format: organism-based; conditions: in vivo
[31] = Toxicity in Kunming mouse assessed as effect on physical appearance at 500 mg/kg, ip administered as single dose; format: organism-based; conditions: in vivo
[32] = Toxicity in Kunming mouse assessed as injury at 500 mg/kg, ip administered as single dose; format: organism-based; conditions: in vivo
[33] = Toxicity in Kunming mouse assessed as pain at 500 mg/kg, ip administered as single dose; format: organism-based; conditions: in vivo
[34] = Toxicity in Kunming mouse assessed as effect on sign of illness at 500 mg/kg, ip administered as single dose; format: organism-based; conditions: in vivo
[35] = Toxicity in ip dosed Kunming mouse administered as single dose; format: organism-based; conditions: in vivo
[36] = Toxicity in Kunming mouse assessed as effect on heart at 5 to 500 mg/kg, ip administered as single dose by macroscopic autopsy analysis; format: organism-based; conditions: in vivo, dose 5-500 mg/kg
[37] = Toxicity in Kunming mouse assessed as effect on liver at 5 to 500 mg/kg, ip administered as single dose by macroscopic autopsy analysis; format: organism-based; conditions: in vivo, dose 5-500 mg/kg
[38] = Toxicity in Kunming mouse assessed as effect on kidney at 5 to 500 mg/kg, ip administered as single dose by macroscopic autopsy analysis; format: organism-based; conditions: in vivo, dose 5-500 mg/kg
[39] = Toxicity in Kunming mouse assessed as effect on spleen at 5 to 500 mg/kg, ip administered as single dose by macroscopic autopsy analysis; format: organism-based; conditions: in vivo, dose 5-500 mg/kg
[40] = Toxicity in Kunming mouse assessed as effect on lung at 5 to 500 mg/kg, ip administered as single dose by macroscopic autopsy analysis; format: organism-based; conditions: in vivo, dose 5-500 mg/kg

What does the source list for `CC(C)=CCC[C@@]1(C)CC=C(CF)c2oc(C)cc2[C@@H]1/C=C/OC(=O)C=C(C)C`?
inhibition (Reticulocyte): 72.2%; IC50 [1]: 0.39 µM; IC50 (HL-60 [2]): 3.69 µM; IC50 (A549): > 40 µM; IC50 (SMMC-7721): 11.9 µM; IC50 (MCF7): 17.7 µM; IC50 (SW480): 20 µM; viability at 1 µM (HL-60 [3]): 87.1%; Activity (HL-60 [4]): 1.57%; Activity (HL-60 [5]): 11%; Activity (HL-60 [6]): 0.27%; viability at 5 µM (HL-60 [7]): 83%; Activity (HL-60 [8]): 2.87%; Activity (HL-60 [9]): 12.8%; Activity (HL-60 [10]): 0.22%; viability at 10 µM (HL-60 [11]): 38.4%; Activity (HL-60 [12]): 4.98%; Activity (HL-60 [13]): 50.4%; Activity (HL-60 [14]): 6.29%; viability at 20 µM (HL-60 [15]): 19.5%; Activity (HL-60 [16]): 3.78%; Activity (HL-60 [17]): 73.3%; Activity (HL-60 [18]): 3.45%; Activity (HL-60 [19]): Active; Activity (HL-60 [20]): Active; Activity (HL-60 [21]): Dose-Dependent Effect; Activity (HL-60 [22]): Dose-Dependent Effect; inhibition [23]: Dose-Dependent Effect; inhibition [24]: Dose-Dependent Effect; solubility [25]: Insoluble; inhibition in vivo at 100 mg/kg (H22 [26]): 48.4%; inhibition in vivo at 100 mg/kg (H22 [27]): 42.4%; Activity [28]: Non-Toxic; Activity [29]: Non-Toxic; Activity [30]: Non-Toxic; Activity [31]: Non-Toxic; Activity [32]: Non-Toxic; Activity [33]: Non-Toxic; Activity [34]: Non-Toxic; LD50 [35]: > 500 mg/kg; Activity [36]: Non-Toxic; Activity [37]: Non-Toxic; Activity [38]: Non-Toxic; Activity [39]: Non-Toxic; Activity [40]: Non-Toxic
